Source: patent US9695194B2, “Benzoxazinone derivatives for treatment of skin diseases” (SIXERA PHARMA AB, priority 2014, dated 2017)

How the values were obtained:
Chymotrypsin, bovine = Chymotrypsin, bovine (Bos taurus (Bovine), UniProt P00766); test: Chymotrypsin assay; format: biochemical; conditions: substrate S-2586, 37° C., pH 7.2
Method: Materials: Chymotrypsin, bovine, 25 μg (Roche, sequence grade), Substrate S-2586 (Chromogenics, cat. no. 82 08 94)

Cathepsin G = Cathepsin G (Homo sapiens (Human), UniProt P08311); test: Cathepsin G assay
Cathepsin G, sequence (P08311 21-255): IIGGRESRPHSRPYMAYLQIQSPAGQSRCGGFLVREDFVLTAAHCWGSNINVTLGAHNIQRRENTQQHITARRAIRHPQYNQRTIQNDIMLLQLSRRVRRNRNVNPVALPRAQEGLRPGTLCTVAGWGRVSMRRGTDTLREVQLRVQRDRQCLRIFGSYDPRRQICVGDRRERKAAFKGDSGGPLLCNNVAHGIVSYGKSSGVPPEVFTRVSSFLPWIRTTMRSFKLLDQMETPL
Method: (§1) IC50 values for a number of substituted 3,1-benzoxazin-4-ones on a panel of human proteases were determined.

Recombinant human KLK7 = Recombinant human KLK7 (Homo sapiens (Human), UniProt P49862); test: KLK7 assay; format: biochemical; conditions: substrate S-2586, 37° C., pH 7.2
Recombinant human KLK7, sequence (P49862 30-253): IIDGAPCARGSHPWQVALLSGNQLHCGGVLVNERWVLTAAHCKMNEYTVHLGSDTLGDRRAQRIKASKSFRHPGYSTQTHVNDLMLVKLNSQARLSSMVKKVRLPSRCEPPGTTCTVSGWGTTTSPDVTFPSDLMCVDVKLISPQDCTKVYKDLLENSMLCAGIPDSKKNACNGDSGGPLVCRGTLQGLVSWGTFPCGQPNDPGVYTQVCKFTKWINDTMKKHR

Trypsin = Trypsin (Bos taurus (Bovine), UniProt P00760); test: Trypsin assay; format: biochemical, human; conditions: substrate S-2288, 37° C., pH 7.2
Trypsin, sequence (P00760 24-246): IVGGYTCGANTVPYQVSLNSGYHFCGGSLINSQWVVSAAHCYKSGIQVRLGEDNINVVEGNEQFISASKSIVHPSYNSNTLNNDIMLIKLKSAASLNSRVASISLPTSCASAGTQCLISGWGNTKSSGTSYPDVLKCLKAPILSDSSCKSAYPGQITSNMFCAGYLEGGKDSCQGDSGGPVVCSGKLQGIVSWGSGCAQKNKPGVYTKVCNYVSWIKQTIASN

Recombinant human KLK5 = Recombinant human KLK5 (Homo sapiens (Human), UniProt Q9Y337); test: KLK5 assay
Recombinant human KLK5, sequence (Q9Y337 23-293): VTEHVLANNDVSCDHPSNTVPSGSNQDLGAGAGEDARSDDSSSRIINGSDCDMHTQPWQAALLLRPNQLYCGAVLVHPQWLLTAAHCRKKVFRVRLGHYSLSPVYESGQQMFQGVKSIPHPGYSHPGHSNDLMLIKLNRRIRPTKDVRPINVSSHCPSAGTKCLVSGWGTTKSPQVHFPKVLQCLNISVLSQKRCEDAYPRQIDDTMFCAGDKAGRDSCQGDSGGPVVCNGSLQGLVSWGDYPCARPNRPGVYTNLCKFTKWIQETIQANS
Method: as §1

## CCOc1cc2c(=O)oc(-c3ccccc3SC)nc2cc1OC [Compound 1, 6-ethoxy-7-methoxy-2-(2-methylsulfanylphenyl)-3,1-benzoxazin-4-one]
Chymotrypsin, bovine
  IC50: > 10 µM
Cathepsin G
  IC50: > 10 µM
Recombinant human KLK7
  IC50: 0.048 µM
Trypsin
  IC50: > 10 µM

## CCOc1cc2c(=O)oc(-c3ccccc3Cl)nc2cc1OC [Compound 2, 2-(2-chlorophenyl)-6-ethoxy-7-methoxy-3,1-benzoxazin-4-one]
Chymotrypsin, bovine
  IC50: > 10 µM
Cathepsin G
  IC50: > 10 µM
Recombinant human KLK7
  IC50: 0.073 µM
Trypsin
  IC50: > 10 µM

## CCOc1cc2c(=O)oc(-c3ccc(OC)cc3OC)nc2cc1OC [Compound 3]
Chymotrypsin, bovine
  IC50: > 10 µM
Cathepsin G
  IC50: 1.1 µM
Recombinant human KLK7
  IC50: 0.116 µM
Trypsin
  IC50: > 10 µM

## CCOc1cc2c(=O)oc(-c3ccccc3S(C)(=O)=O)nc2cc1OC [Compound 4]
Chymotrypsin, bovine
  IC50: > 10 µM
Cathepsin G
  IC50: 2.8 µM
Recombinant human KLK7
  IC50: 0.23 µM
Trypsin
  IC50: > 10 µM

## CCOc1cc2c(=O)oc(-c3ccccc3OC)nc2cc1OC [Compound 5]
Chymotrypsin, bovine
  IC50: > 10 µM
Cathepsin G
  IC50: 1.2 µM
Recombinant human KLK7
  IC50: 0.085 µM
Trypsin
  IC50: > 10 µM

## COc1ccccc1-c1nc2cc3c(cc2c(=O)o1)OCCCO3 [Compound 6]
Chymotrypsin, bovine
  IC50: < 0.1 µM
Recombinant human KLK7
  IC50: 0.08 µM
Trypsin
  IC50: > 10 µM

## O=c1oc(-c2ccccc2Cl)nc2cc3c(cc12)OCCCO3 [Compound 7]
Chymotrypsin, bovine
  IC50: < 0.1 µM
Cathepsin G
  IC50: 1.9 µM
Recombinant human KLK7
  IC50: 0.09 µM
Trypsin
  IC50: > 10 µM

## COc1ccc(-c2nc3cc4c(cc3c(=O)o2)OCCCO4)c(OC)c1 [Compound 8]
Chymotrypsin, bovine
  IC50: < 0.1 µM
Recombinant human KLK7
  IC50: 0.065 µM
Trypsin
  IC50: > 10 µM

## CSc1ccccc1-c1nc2cc3c(cc2c(=O)o1)OCCCO3 [Compound 9]
Cathepsin G
  IC50: 1.3 µM
Recombinant human KLK7
  IC50: 0.228 µM
Trypsin
  IC50: > 10 µM

## CS(=O)(=O)c1ccccc1-c1nc2cc3c(cc2c(=O)o1)OCCCO3 [Compound 10]
Chymotrypsin, bovine
  IC50: 0.2 µM
Recombinant human KLK7
  IC50: 0.188 µM
Trypsin
  IC50: > 10 µM

## CC(C)c1ccc(-c2nc3cc4c(cc3c(=O)o2)OCCCO4)c(C(C)C)c1 [Compound 11]
Chymotrypsin, bovine
  IC50: 1 µM
Cathepsin G
  IC50: > 10 µM
Recombinant human KLK7
  IC50: 1.37 µM
Trypsin
  IC50: > 10 µM

## COc1cc2nc(-c3ccccc3SC)oc(=O)c2cc1OC [Compound 12]
Recombinant human KLK7
  IC50: 0.147 µM
Trypsin
  IC50: > 10 µM

## COc1ccccc1-c1nc2cc3c(cc2c(=O)o1)OCCO3 [Compound 13]
Chymotrypsin, bovine
  IC50: < 0.1 µM
Recombinant human KLK7
  IC50: 0.155 µM
Trypsin
  IC50: 1.8 µM

## CS(=O)(=O)c1ccccc1-c1nc2cc3c(cc2c(=O)o1)OCCO3 [Compound 14]
Chymotrypsin, bovine
  IC50: < 0.1 µM
Recombinant human KLK5
  IC50: 0.6 µM
Recombinant human KLK7
  IC50: 0.183 µM
Trypsin
  IC50: 1.8 µM

## COC1=CC=C(c2nc3cc4c(cc3c(=O)o2)OCCO4)C(OC)C1 (stereo not drawn) [Compound 15]
Chymotrypsin, bovine
  IC50: < 0.1 µM
Recombinant human KLK7
  IC50: 0.105 µM
Trypsin
  IC50: 3.7 µM

## O=c1oc(-c2ccccc2Cl)nc2cc3c(cc12)OCCO3 [Compound 16]
Chymotrypsin, bovine
  IC50: < 0.1 µM
Recombinant human KLK7
  IC50: 0.149 µM
Trypsin
  IC50: 3.7 µM

## COc1ccc(-c2nc3cc(OC)c(OC)cc3c(=O)o2)c(OC)c1 [Compound 17]
Chymotrypsin, bovine
  IC50: 1.2 µM
Cathepsin G
  IC50: 0.1 µM
Recombinant human KLK5
  IC50: 1 µM
Recombinant human KLK7
  IC50: 0.175 µM
Trypsin
  IC50: > 10 µM

## COc1cc2nc(-c3ccccc3I)oc(=O)c2cc1OC [Compound 18]
Chymotrypsin, bovine
  IC50: > 10 µM
Cathepsin G
  IC50: 1.9 µM
Trypsin
  IC50: > 10 µM
